# Results from PMC5859250, “Contribution of transformation products towards the total herbicide toxicity to tropical marine organisms” (Scientific Reports, 2018).
# Columns and labels:
# Dunaliella sp. = experiment: Microalgal PAM fluorometry assay, inhibition of ∆F/Fm′ (24 h, 96-well plate); assay type: cell-based; conditions: 24 h; for IC20: read-out: IC20 parent (inhibition of ∆F/Fm′ by 20%); for IC50: read-out: IC50 parent (inhibition of ∆F/Fm′ by 50%); for IC10 parent (inhibition of ∆F/Fm′ by 10%): Dunaliella sp., pure compound
# Text: (§1) Microalgae play a critical role in the marine food web and have been used in a number of sensitive assays for the assessment of toxicity of both herbicides and their transformation products[13],[16],[60]. High throughput 96 well plate designs allow for increased replication and a wide range of concentrations especially when paired with pulse amplitude modulation (PAM) fluorometry[50],[61]. PAM fluorometry measures chlorophyll fluorescence and can be used to calculate inhibitions of effective quantum yield ∆F/Fm′, which is proportional to reduced photosynthetic efficiency[62] and growth in microalgae[63] and can be plotted against toxicant concentrations to derive concentrations that inhibit ∆F/Fm′ by 10, 20 and 50% (IC10, IC20 and IC50). In the present study the green algae (Dunaliella sp.) and coral symbiont (Symbiodinium sp.) were exposed to herbicides and aged herbicide solutions for 24 h in a 96-well plate format. A Maxi-Imaging-PAM (I-PAM) (Walz, GmbH Germany) was used to measure inhibition of ∆F/Fm′ using settings provided previously[36] and below.
# (§2) Symbiodinium cells were isolated from coral by air blasting branches of Acropora tenuis colonies collected (collected under the permit G10-33440.1) at 2–5 m depth in Nelly Bay, Magnetic Island, GBR[36]. Symbiodinium cells were inoculated into sterile IMK growing media, the culture purified, DNA extracted, and Clade C1 identified as published previously[64],[65]. Cultures were maintained at 26 °C, 60 µE PAR, 14:10 light:dark photoperiod inside environmental chambers (Steridium e500). The Dunaliella sp. (CS-353) (Chlorophyceae) was obtained from the CSIRO Collection of Living Microalgae (CCLM). The algae was subcultured and grown in F2 media. For the toxicology assays, an exponentially growing culture was employed[63] and density adjusted by hemocytometry under 10× magnification. Day 7 sub-cultures were used throughout the experiment.
# (§3) Herbicide solutions were delivered into each treatment plate using a Perkin Elmer Janus liquid handling system. Each well of the black 96-well plates (Perkin Elmer) received 100 µl herbicide solution as well as 100 µl of algal suspension (added via multi-channel pipette) and the solution was gently mixed. […] Each plate included a 3 µg l^−1 positive diuron control (n = 4) to confirm consistent sensitivities among the replicate algal subcultures. Treatments positions were randomised across the plates in duplicate[50],[61],[66]. Symbiodinium culture plates were incubated over a 12:12 h light:dark cycle at 26 °C and 60–70 µmol photons m^−2 s^−1 and Dunaliella sp. Plates incubated at: 26 °C and 130 µmol photons m^−2 s^−1. Microalgae were exposed for 24 h prior to PAM measurements. Samples were subjected to the 50 µmol photons m^−2 s^−1 actinic light for 1 min prior to measurement in the Maxi-IPAM (Actinic light = 1, ML = 10, ML frequency = 8, gain = 2 and damping = 1).
# (§4) The model was constrained by applying a lower limit of 0% inhibition and all curves were tested for normality of the residuals and a replicate test was applied to assess the goodness of fit[36]. The probability that ICX values generated by the logistic curves were statistically different between parent and aged herbicide solutions was tested by applying the F test in Graph Pad Prism v6. ICXs were considered different when p < 0.05. Where inhibition data could not be fitted to logistic curves, one-way analysis of variance (ANOVA) was performed to identify treatments which caused significant (p < 0.05) inhibition comparison with control treatments (NCSS v9, Utah, USA). The larval prawn experimental data was arcsine square root transformed prior to statistical analysis.
# Symbiodinium sp. = experiment: as above; assay type: cell-based; conditions: 24 h; for IC20: read-out: IC20 parent (inhibition of ∆F/Fm′ by 20%); for IC50: read-out: IC50 parent (inhibition of ∆F/Fm′ by 50%); for IC10 parent (inhibition of ∆F/Fm′ by 10%): Symbiodinium sp., pure compound
# Text: as §1, §2, §3, §4
# [1] = test system: prawn (Penaeus monodon) larvae; experiment: Prawn larvae assay, metamorphosis of nauplii into protozoea (24 h static); assay type: in vivo; conditions: 24 h; for Effect on prawn larval metamorphosis (in words): concentration range tested; for LOEC, prawn larval metamorphosis / NOEC, prawn larval metamorphosis: vs solvent control, ANOVA p < 0.05, aged solutions as concentration of parent herbicide
# Procedure: The giant tiger prawn (Penaeus monodon) can be found throughout the tropical Indo-Pacific region and can be obtained from aquaculture facilities and has a well-described life cycle. The aim of the larval prawn assay was to determine whether the herbicides and transformation products inhibit early naupliar development. Prawn eggs hatch into their first larval stage (nauplii), typically 12–15 h after spawning. During development the nauplii are lecithotrophic, and over the course of the next 36 h, nauplii pass through 6 sub-stages before metamorphosing into protozoae[67],[68].
# Freshly hatched nauplii were harvested by light attraction over 30 min, and washed and aerated for 10 min with seawater, and transported to AIMS in Townsville, Queensland. […] The toxicity assays were performed in incubator shakers (set to 30 °C) under very low light and with gentle shaking to prevent individuals adhering to the side of experimental containers.
# The larval stock was gently concentrated via reverse-gravity filtration to a higher density before dispensing 8–10 individuals per 20 ml glass scintillation vials. Additional positive control treatments in the form of 4 concentrations of copper II chloride solution (2 to 900 µg l^−1 Cu), were included for test validation. The static assay was terminated after 24 h and 10% seawater formalin was added as a preservative for later microscopy. Metamorphosis was considered successful when nauplii had developed into protozoea.
# as §4
# [2] = Herbicide degradation in outdoor tanks with coastal seawater and sediment (330 d); assay type: physicochemical; conditions: for Transformation product concentration: in tank of the parent herbicide, measured or estimated
# Text: Photosystem II herbicides/transformation product solutions were produced by adding herbicides to seawater within separate 120 l outdoor fibreglass tanks, in the presence of natural coastal sediments (further details can be found in Mercurio 2016)[36]. […] The tanks used were previously described in Mercurio et al.[8], with treatment water being partially shaded (70%) and exposed to a maximum of 700 µmol photons m^−2s^−1 over the course of the experiment. The application of a natural diurnal light regime and coastal sediment were previously shown to increase the rates of PSII herbicide degradation and represent more natural conditions than those used in standard degradation tests[8],[36]. Evaporation was minimised with loose-fitting clear acrylic lids and the water continuously circulated using Turbelle Nanostream pumps. Prior to every sampling period evaporation losses were replenished with equal volumes of MilliQ water. The average temperature was 25.7 °C with a range of 15.6–36.6 °C over the course of the study. Unfiltered coastal seawater and sediments were collected from the intertidal zone adjacent to the Australian Institute of Marine Science (19°16′S, 147°03′E), Cape Cleveland, QLD. The sediments were prepared one week prior to use by sieving (>2 mm removed) and thorough mixing. Each tank contained 5 kg of sediment. Physical and chemical information on the seawater and sediments used the treatments can be found in SOM Table 1.
# The 20 tanks included replicates for control seawater (n = 4) and the PSII herbicides diuron (n = 4), atrazine (n = 3), simazine (n = 3), hexazinone (n = 3), and ametryn (n = 3). Herbicide treatments and replicates were randomized among tanks. The herbicides were purchased from Sigma Aldrich (>95% purity) and were introduced at ~1 mg l^−1 to enable direct chemical and toxicological testing of the herbicide transformation product mixtures without additional concentration steps. […] The same concentration was used in the controls. Sample collection, internal standard addition, and analytical techniques (HPLC-MS/MS using an AB/Sciex API5500Q mass spectrometer equipped with an electrospray interface and coupled to a Shimadzu Prominence HPLC system) were as previously reported[7],[36]. […] Individual replicates were analysed using HPLC/TripleTOF mass spectrometry for possible transformation products as described in Mercurio 2016[36]. Briefly, 0.2 µm-filtered samples were directly injected into an ABSciex API5600+ Triple TOF mass spectrometer (ABSciex, Concord, Ontario, Canada) equipped with an electrospray (TurboV) interface coupled to a Shimadzu Nexera HPLC system (Shimadzu Corp., Kyoto, Japan). Separation was achieved using a 4 micron 50 × 2.0 mm Phenomenex Synergi Fusion RP column (Phenomenex, Torrance, CA) run at 45 °C, and a flow rate of 0.4 mL min^−1 with a linear gradient starting at 8% B for 0.5 minutes, ramped to 100% B in 8 minutes then held at 100% for 2.0 minutes followed by equilibration at 8% B for 2.5 minutes (A = 1% methanol in HPLC grade water, B = 95% methanol in HPLC grade water, both containing 0.1% acetic acid). The mass spectrometer was operated in positive ion SWATH mode. Briefly this mode comprises a TOF scan of 50 millisecond duration followed by small segments of the mass range being transmitted through the quadrupole, fragmented in the collision cell and full TOF mass spectra taken of the transformation products. Data from these experiments was examined using the Masterview software (ABSciex).
# Potential transformation products identified using TOF mass spectrometry and other potential transformation products identified from literature were then re-examined by HPLC/ triple quadrupole mass spectrometry using multiple reaction monitoring. Product ions used were as identified from QTOF data or from literature references and parameters such as collision energy optimised by repeated injections of samples for compounds detected. […]
# [3] = day 330, seawater with sediment, outdoor tanks
molecule,measurement,setting,value
CN(C)C(=O)Nc1ccc(Cl)c(Cl)c1 [Diuron],IC20,Dunaliella sp.,0.00174 mg/L
same,IC50,Dunaliella sp.,0.0044 mg/L
same,IC10 parent (inhibition of ∆F/Fm′ by 10%),Dunaliella sp.,1.02 (0.94–1.10) µg l^−1
same,IC20,Symbiodinium sp.,0.00068 mg/L
same,IC50,Symbiodinium sp.,0.0014 mg/L
same,IC10 parent (inhibition of ∆F/Fm′ by 10%),Symbiodinium sp.,0.64 (0.57–0.71) µg l^−1
same,Effect on prawn larval metamorphosis (in words),[1],did not affect metamorphosis
same,"LOEC, prawn larval metamorphosis",[1],>874 µg/L
same,"NOEC, prawn larval metamorphosis",[1],874 µg/L
same,"LOEC, prawn larval metamorphosis",[1]; listed as diuron,> 874 µg/L
same,% degradation,[2]; [3],93%
same,Parent herbicide concentration,[2]; [3],71 µg/L
"CNC(=O)Nc1ccc(Cl)c(Cl)c1 [DCPMU, 3-(3,4-dichlorophenyl)-1-methylurea]",Transformation product concentration,[2]; day 330,236 µg/L
CN(C)c1nc(=O)n(C2CCCCC2)c(=O)n1C [Hexazinone],IC20,Dunaliella sp.,0.01 mg/L
same,IC50,Dunaliella sp.,0.038 mg/L
same,IC20,Symbiodinium sp.,0.012 mg/L
same,IC50,Symbiodinium sp.,0.0457 mg/L
same,IC10 parent (inhibition of ∆F/Fm′ by 10%),Symbiodinium sp.,5.3 (4.5–6.7) µg l^−1
same,"LOEC, prawn larval metamorphosis",[1],1026 µg/L
same,"NOEC, prawn larval metamorphosis",[1],242 µg/L
same,% degradation,[2]; 330 d,58%
same,Parent herbicide concentration,[2]; [3],366 µg/L
"CCNc1nc(N)nc(SC)n1 [Ametryn desisopropyl, ametryn desisopropyl]",Transformation product concentration,[2]; day 330,BDL
"CCNc1nc(NC(C)C)[nH]c(=O)n1 [Ametryn hydroxy, hydroxy ametryn]",Transformation product concentration,[2]; day 330,188 µg/L
"CNc1nc(=O)n(C2CCCCC2)c(=O)n1C [Hexazinone desmethyl, hexazinone desmethyl]",Transformation product concentration,[2]; day 330,91 µg/L
hexazinone hydroxy,Transformation product concentration,[2]; day 330,5.4 µg/L
simazine amine,Transformation product concentration,[2]; day 330,31 µg/L
"CCNc1nc(N)nc(Cl)n1 [Desethyl simazine, desethyl simazine]",Transformation product concentration,[2]; day 330,79 µg/L
"CCNc1nc(O)nc(NCC)n1 [Simazine hydroxy, hydroxy simazine]",Transformation product concentration,[2]; day 330,45 µg/L
CCNc1nc(Cl)nc(NCC)n1 [Simazine],IC20,Dunaliella sp.,0.017 mg/L
same,IC50,Dunaliella sp.,0.087 mg/L
same,IC20,Symbiodinium sp.,0.034 mg/L
same,IC50,Symbiodinium sp.,0.084 mg/L
same,IC10 parent (inhibition of ∆F/Fm′ by 10%),Symbiodinium sp.,21 (19–23) µg l^−1
same,% degradation,[2]; [3],63%
same,Parent herbicide concentration,[2]; [3],384 µg/L
hexazinone oxy,Transformation product concentration,[2]; day 330,26 µg/L
"CCNc1nc(NC(C)C)[nH]c(=O)n1 [Atrazine hydroxy, hydroxy atrazine]",Transformation product concentration,[2]; day 330,30 µg/L
"CSc1nc(N)nc(NC(C)C)n1 [Ametryn desethyl, ametryn desethyl]",Transformation product concentration,[2]; day 330,23 µg/L
CCNc1nc(Cl)nc(NC(C)C)n1 [Atrazine],IC20,Dunaliella sp.,0.018 mg/L
same,IC50,Dunaliella sp.,0.035 mg/L
same,IC10 parent (inhibition of ∆F/Fm′ by 10%),Dunaliella sp.,12 (11–14) µg l^−1
same,IC20,Symbiodinium sp.,0.014 mg/L
same,IC50,Symbiodinium sp.,0.0345 mg/L
same,IC10 parent (inhibition of ∆F/Fm′ by 10%),Symbiodinium sp.,8.6 (8.0–9.3) µg l^−1
same,"LOEC, prawn larval metamorphosis",[1],899 µg/L
same,"NOEC, prawn larval metamorphosis",[1],197 µg/L
same,% degradation,[2]; [3],64%
same,Parent herbicide concentration,[2]; [3],278 µg/L
"[Cl][Cu][Cl] [Copper reference, copper II chloride, reference compound]","LOEC, prawn larval metamorphosis",[1],91 µg/L
same,"NOEC, prawn larval metamorphosis",[1],11 µg/L
"NC(=O)Nc1ccc(Cl)c(Cl)c1 [DCPU, 3,4-dichlorophenylurea]",Transformation product concentration,[2]; day 330,85 µg/L
CCNc1nc(NC(C)C)nc(SC)n1 [Ametryn],IC20,Dunaliella sp.,0.00123 mg/L
same,IC50,Dunaliella sp.,0.0034 mg/L
same,IC10 parent (inhibition of ∆F/Fm′ by 10%),Dunaliella sp.,0.70 (0.65–0.74) µg l^−1
same,IC20,Symbiodinium sp.,0.00082 mg/L
same,IC50,Symbiodinium sp.,0.0022 mg/L
same,IC10 parent (inhibition of ∆F/Fm′ by 10%),Symbiodinium sp.,0.47 (0.43–0.51) µg l^−1
same,Effect on prawn larval metamorphosis (in words),[1],did not affect metamorphosis
same,"LOEC, prawn larval metamorphosis",[1],>517 µg/L
same,"NOEC, prawn larval metamorphosis",[1],517 µg/L
same,% degradation,[2]; 330 d,56%
same,Parent herbicide concentration,[2]; [3],189 µg/L
